Measured values published in ChEMBL document CHEMBL1153865, “The metabolism of CYP2C9 and CYP2C19 for gliclazide by homology modeling and docking study” (Eur J Med Chem, 2009).
pKi: −log10 of the molar value.

Experiments:
Format in all cases: ADME
Cytochrome P450 2C19 [1] = target: T1, Cytochrome P450 2C19 (Homo sapiens, UniProt P33261); assay: Inhibition of CYP2C19
Cytochrome P450 2C9 [2] = target: T2, Cytochrome P450 2C9 (Homo sapiens, UniProt P11712); assay: Activity at recombinant CYP2C9 by Michaelis-Menten method; settings: recombinant enzyme
T2 sequence (P11712 whole entry): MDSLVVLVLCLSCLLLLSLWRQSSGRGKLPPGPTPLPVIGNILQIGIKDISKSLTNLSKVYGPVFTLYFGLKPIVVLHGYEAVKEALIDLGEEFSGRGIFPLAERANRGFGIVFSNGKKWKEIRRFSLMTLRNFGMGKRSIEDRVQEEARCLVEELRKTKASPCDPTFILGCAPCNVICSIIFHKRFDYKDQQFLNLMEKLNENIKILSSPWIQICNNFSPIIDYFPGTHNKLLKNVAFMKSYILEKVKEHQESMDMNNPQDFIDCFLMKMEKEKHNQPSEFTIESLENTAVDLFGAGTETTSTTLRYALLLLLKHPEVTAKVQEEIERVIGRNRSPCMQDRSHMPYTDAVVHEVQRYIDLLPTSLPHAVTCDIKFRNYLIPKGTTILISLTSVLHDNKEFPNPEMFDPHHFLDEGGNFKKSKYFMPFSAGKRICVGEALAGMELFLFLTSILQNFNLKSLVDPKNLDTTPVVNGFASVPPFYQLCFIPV

Cytochrome P450 2C19 [3] = target: T1, Cytochrome P450 2C19; assay: Activity at recombinant CYP2C19 by Michaelis-Menten method; settings: recombinant enzyme
Cytochrome P450 2C19 [4] = target: T1, Cytochrome P450 2C19; assay: Inhibition of CYP2C19 assessed as decrease in catalytic reaction velocity at 100 uM by substrate-inhibition assay
Cytochrome P450 2C9 [5] = target: T2, Cytochrome P450 2C9; assay: Inhibition of CYP2C9 assessed as decrease in catalytic reaction velocity at 200 uM by substrate-inhibition assay

T1 sequence (P33261 whole entry): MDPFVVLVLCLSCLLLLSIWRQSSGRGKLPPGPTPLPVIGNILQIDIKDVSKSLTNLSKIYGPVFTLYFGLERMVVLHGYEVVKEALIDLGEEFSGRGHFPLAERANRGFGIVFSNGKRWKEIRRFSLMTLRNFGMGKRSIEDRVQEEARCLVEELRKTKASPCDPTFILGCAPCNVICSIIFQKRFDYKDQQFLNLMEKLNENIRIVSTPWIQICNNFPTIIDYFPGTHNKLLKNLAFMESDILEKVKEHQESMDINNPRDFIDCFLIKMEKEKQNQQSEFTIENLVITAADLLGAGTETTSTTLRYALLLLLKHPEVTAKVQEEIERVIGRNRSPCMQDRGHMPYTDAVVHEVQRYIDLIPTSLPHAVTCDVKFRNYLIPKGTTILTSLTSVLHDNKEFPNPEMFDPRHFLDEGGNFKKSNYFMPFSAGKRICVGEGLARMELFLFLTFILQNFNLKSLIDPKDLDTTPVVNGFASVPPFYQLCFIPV

In the case of `CCC1(c2ccccc2)C(=O)NC(=O)N(Cc2ccccc2)C1=O` (configuration not stated), the pKi (Cytochrome P450 2C19 [1]) was 4.10.
`Cc1ccc(S(=O)(=O)NC(=O)NN2C[C@@H]3CC[C@@H](O)[C@@H]3C2)cc1` gave a Vmax (Cytochrome P450 2C9 [2]) of 0.6 pmol/min and a Vmax (Cytochrome P450 2C19 [3]) of 14.9 pmol/min.
`Cc1ccc(S(=O)(=O)NC(=O)NN2CC3CCCC3C2)cc1` (configuration not stated) [GLICLAZIDE] was tested, and the “inhibition (INH)” value (Cytochrome P450 2C19 [4]) was “Not Active” and the “inhibition (INH)” value (Cytochrome P450 2C9 [5]) was “Not Active”.
In the case of `O=C(NN1C[C@H]2CCC[C@H]2C1)NS(=O)(=O)c1ccc(CO)cc1` [METHYLHYDROXYLGLICLAZIDE], the Vmax (Cytochrome P450 2C9 [2]) was 0.6 pmol/min and the Vmax (Cytochrome P450 2C19 [3]) was 12.1 pmol/min.
